Assay results: US20250129012A1, “ANTI-INFLAMMATORY AND ANALGESIC COMPOUNDS AND USE THEREOF” (JIANGSU ATOM BIOSCIENCE AND PHARMACEUTICAL CO., LTD., priority 2021, published 2025)
Like-named read-outs stand apart in the source and are kept apart here.

Experiments:
[1] = tested on: gouty arthritis rats (sodium urate, right ankle and knee joint cavities); assay: Pharmacodynamics experiment B on gouty arthritis rats: ankle swelling rate; type: in vivo, SD rats; details: for change in vivo at 0.6 mg/kg / change in vivo at 1.2 mg/kg: Rattus norvegicus, po, read-out: Swelling rate (ankle)
How it was run: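 Male SD rats dosed by gavage at 0.6 mg/kg (0.5% CMC-Na suspension) daily for 7 days before and 3 days after injection of 0.2 mL sodium urate solution into right ankle and knee joints. Ankle circumference measured before and 2-48 h after modeling; swelling rate = swelling degree/baseline ×100%, mean values.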

[2] = death 35 h after ingestion; cited from earlier work
TNF-α = assay: Inflammatory factor experiment A: TNF-α in gouty arthritis rats; type: in vivo, SD rats
Experimental: Compounds 14, 17 and 26 were prepared by grinding with 0.5% CMC-Na before administration and into a suspension for gavage at the corresponding concentration (0.06 mg/mL), with a dosage volume of 10 mL/kg. Colchicine, purchased from Sun Chemical Technology (Shanghai) Co., Ltd. with batch no. 49ETRRAS, and was prepared by grinding with 0.5% CMC-Na before administration and into a suspension for gavage at the corresponding concentration (0.06 mg/mL), with a dosage volume of 10 mL/kg.
The compounds in each group were prepared into a suspension of the corresponding concentration, and the dosage volume was 10 mL/kg.
The crystalline arthritis model was prepared by intra-articular injection of urate crystals (40 mg/mL in the left ankle joint of each rat). Different doses of the test compounds were given separately by gavage administration. The day of administration was defined as day 1 of the experiment, and the compounds were administered once a day for 10 consecutive days (pre-administration of the drug for 7 days prior to modeling, modeling on day 8, and continuation of the drug for 3 days). The experiment ended on day 10. […]

## COc1cc2c(c(OC)c1OC)-c1ccc(OC)c(=O)cc1[C@@H](NC(C)=O)CC2 [colchicine, reference compound]
[1]; 2 h
  change in vivo at 0.6 mg/kg: 10.5%
  change in vivo at 1.2 mg/kg: 8.97%
[1]; 4 h
  change in vivo at 0.6 mg/kg: 15.7%
  change in vivo at 1.2 mg/kg: 14.9%
[1]; 8 h
  change in vivo at 0.6 mg/kg: 20.6%
  change in vivo at 1.2 mg/kg: 17.2%
[1]; 10 h
  change in vivo at 0.6 mg/kg: 23.4%
  change in vivo at 1.2 mg/kg: 19.4%
[1]; 24 h
  change in vivo at 0.6 mg/kg: 24.4%
  change in vivo at 1.2 mg/kg: 19.8%
[1]; 48 h
  change in vivo at 0.6 mg/kg: 12.1%
  change in vivo at 1.2 mg/kg: 9.29%
[1]; compounds 0.6 mg/kg, colchicine 0.6 and 1.2 mg/kg
  Ankle swelling rate versus model group, in words: significantly (P<0.01) reduced
[2]
  Dose with reported death cases: 0.4 mg/kg
TNF-α; 0.6 mg/kg
  TNF-α level after modeling, in words: can reduce the TNF-α level
TNF-α; synovial tissue of knee joints, dose 0.6 mg/kg gavage, day 10
  Decreased TNF-α percentage %: 93.73%
